According to the NIST ThermoML archive (doi:10.1016/j.jct.2016.09.031):
± gives the expanded uncertainty stated by the source.

How the values were obtained:
[1] = molar heat capacity at constant pressure; mn = molality of the nth substance listed, in mol/kg; conditions: 298.15 K, 100 kPa, Liquid, Flow calorimetry
[2] = molar heat capacity at constant pressure; conditions: 298.15 K; 101.33 kPa; Liquid; Flow calorimetry

O [water] + [Cl-].[Rb+]
molar heat capacity at constant pressure ([1]; m2 = 0): 75.11 ± 1.5 J/K/mol

[Cl-].[Rb+] [rubidium chloride] + O
molar heat capacity at constant pressure ([1]; m1 = 0.4938): 73.89 ± 1.5 J/K/mol | molar heat capacity at constant pressure ([1]; m1 = 0.8703): 73.2 ± 1.5 J/K/mol | molar heat capacity at constant pressure ([1]; m1 = 1.515): 71.66 ± 1.4 J/K/mol | molar heat capacity at constant pressure ([1]; m1 = 2.41): 69.91 ± 1.4 J/K/mol | molar heat capacity at constant pressure ([1]; m1 = 3.388): 68.46 ± 1.4 J/K/mol | molar heat capacity at constant pressure ([1]; m1 = 4.213): 67.56 ± 1.4 J/K/mol | molar heat capacity at constant pressure ([1]; m1 = 4.888): 67.01 ± 1.3 J/K/mol | molar heat capacity at constant pressure ([1]; m1 = 5.84): 66.18 ± 1.3 J/K/mol

[Cl-].[Na+] [sodium chloride] + O
molar heat capacity at constant pressure ([1]; m1 = 2.05): 72.32 ± 1.5 J/K/mol

O [water]
molar heat capacity at constant pressure [2]: 75.11 ± 1.5 J/K/mol

O [water] + [Cl-].[Cs+]
molar heat capacity at constant pressure ([1]; m2 = 0): 75.11 ± 1.5 J/K/mol

[Cl-].[Cs+] [cesium chloride] + O
molar heat capacity at constant pressure ([1]; m1 = 0.2644): 74.19 ± 1.5 J/K/mol | molar heat capacity at constant pressure ([1]; m1 = 0.5336): 73.52 ± 1.5 J/K/mol | molar heat capacity at constant pressure ([1]; m1 = 1.066): 72.48 ± 1.5 J/K/mol | molar heat capacity at constant pressure ([1]; m1 = 2.018): 70.13 ± 1.4 J/K/mol | molar heat capacity at constant pressure ([1]; m1 = 3.02): 68.3 ± 1.4 J/K/mol | molar heat capacity at constant pressure ([1]; m1 = 3.877): 67.71 ± 1.4 J/K/mol | molar heat capacity at constant pressure ([1]; m1 = 5.674): 66.01 ± 1.3 J/K/mol | molar heat capacity at constant pressure ([1]; m1 = 6.822): 65.63 ± 1.3 J/K/mol
